Experimental data: US8916564B2, “Substituted pyrido[1,2-a]pyrazines for the treatment of neurodegenerative and neurological disorders” (priority 2012, dated 2014)

Target: γ-secretase (Cricetulus griseus, UniProt G3HNF2)
Assay: Cell-Based γ-Secretase Assay with ELISA Readout (production of amyloid beta protein Aβ(1-42))
Details: human WT-APP overexpressing CHO cells; Aβ(1-42) ELISA; geometric mean of 2-4 determinations (b: single determination; c: geometric mean of ≧5 determinations)
Method: The ability of compounds to modulate production of amyloid beta protein Aβ(1-42) was determined using human WT-APP overexpressing CHO cells. Cells were plated at 22,000 cells/100 μL well in 96 well tissue culture treated, clear plates (Falcon) in DMEM/F12 based medium and incubated for 24 hours at 37° C. […] Compounds were added in fresh medium to achieve 1% final DMSO. Appropriate vehicle or inhibitor controls were added into control wells individually to obtain minimum or maximum inhibition values, respectively, for the assay signal window before the plates were incubated for ˜24 hours at 37° C. This procedure produces conditioned media in each well which is tested for Aβ(1-42) levels in the ELISA detection step described next. The remaining cell cultures in each well are also tested for cell toxicity as described below.
Coating of ELISA assay plates was initiated by addition of 50 μL/well of an in-house Aβ(1-42) specific antibody at (3 μg/mL) in 0.1 M NaHCO3 (pH 9.0) into black 384-well Maxisorp® plates (Nunc) and incubated overnight at 4° C. […] Cell toxicity was also measured in the corresponding remaining cells after removal of the conditioned media for the Aβ(1-42) assay by a colorimetric cell proliferation assay (CellTiter 96®AQueous One Solution Cell Proliferation Assay, Promega) according to the manufacturer's instructions. […]

Cc1cn(-c2ccc3n(c2=O)CCN(CC2CC(c4ccc(Cl)c(C(F)(F)F)c4)=NO2)C3=O)cn1 (stereo not shown) [Example 32, 2-({3-[-chloro-3-(trifluoromethyl)phenyl]-4,5-dihydro-1,2-oxazol-5-yl}methyl)-7-(4-methyl-1H-imidazol-1-yl)-3,4-dihydro-2H-pyrido[1,2-a]pyrazine-1,6-dione]
IC50: 429 nM
